Tests used:
[1] = biological target: T1, hNET (Homo sapiens, UniProt P23975); assay: [3H]-NE uptake in transporter-transfected HEK293 cells; type: cell-based; details: HEK293 cell line, read-out: IC50 values, uptake of [3H]-NE (NET)
T1 construct: expressed in transfected cells
Protocol: The uptake of 5-HT, NE and DA into HEK293 cells stably expressing human transporters was determined using methods previously described with slight modifications. Briefly, the culture medium was removed from cells, and the cells were washed once with phosphate-buffered saline. Krebs-Ringers-HEPES (KRH) assay buffer (100 μL/well, containing 120 mM NaCl, 4.7 mM KCl, 2.2 mM CaCl2, 1.2 mM MgSO4, 1.2 mM […], 10 mM HEPES, pH 7.4) was then added. Various concentrations of drugs were administered to cells in a 24-well plate. The uptake was initiated by the addition of [^3H]-5-HT (50 nM), [^3H]-NE (80 nM), or [^3H]-DA (50 nM). Uptake was terminated by five washes using cold KRH assay buffer after 10-min incubation at 37 °C. The cells were solubilised using 400 μL of scintillation fluid and counted using a Packard Top Count scintillation counter.
(§1) All data for inhibition curves were analysed by nonlinear regression using Prism software (GraphPad Software Inc., San Diego, CA) to determine IC50 values. For the microdialysis experiments, two-way repeated-measures ANOVA followed by Tukey’s test was used to compare the percentage increase over baseline between groups, time and treatment as independent factors, and time as the repeated factor.

[2] = biological target: κ (Homo sapiens, UniProt P41145); assay: CNS receptor binding, opioid κ; details: CHO cell line, [3H]-dipnorphine(1)
Protocol: (§2) Albiflorin (10 μM) was tested for numerous other potential binding targets by using standard receptor binding procedures. The tested targets included the following receptors: D1, D2, D3, D4, D5, 5-HT1A, 5-HT1B, 5-HT1D, 5-HT2a, 5-HT2C, 5-HT3, 5-HT5A, 5-HT6, 5-HT7, α1A, α1B, α2A, β1, M1, M2, M3, M4, M5, μ, κ, δ, A1, A2A, H1, H2, H3, H4.

[3] = biological target: M2 (Homo sapiens, UniProt P08172); assay: CNS receptor binding, muscarinic M2; details: HEK293 cell line, [3H]-NMS(1)
Protocol: as §2

[4] = biological target: 5-HT2a (Homo sapiens, UniProt P28223); assay: CNS receptor binding, 5-HT2a; details: HEK293 cell line, [3H]-ketanserin(1)
Protocol: as §2

[5] = tested on: sucrose consumption; design: method as in PMID 26719283; details: rats; chronic unpredicted mild stress; cited from earlier work
[6] = biological target: T2, D4 (Homo sapiens, UniProt P21917); assay: CNS receptor binding, dopamine D4; details: HEK293 cell line, [3H]-spiperone(1)
T2 construct: expressed in transfected cells; host or cells: HEK293 cell line
Protocol: as §2

[7] = biological target: 5-HT1B (Homo sapiens, UniProt P28222); assay: CNS receptor binding, 5-HT1B; details: HEK293 cell line, [3H]-LSD(6)
Protocol: as §2

[8] = biological target: A2A (Homo sapiens, UniProt P29274); assay: CNS receptor binding, adenosine A2A; details: HEK293 cell line, [3H]-CGS21680(10), read-out: IC50 values for albiflorin
Protocol: as §2

[9] = biological target: α1B (Homo sapiens, UniProt P35368); assay: CNS receptor binding, NE receptor α1B; details: HEK293 cell line, [3H]-parzosin(1)
Protocol: as §2

[10] = biological target: A1 (Homo sapiens, UniProt P30542); assay: CNS receptor binding, adenosine A1; details: CHO cell line, [3H]-DPCPX(1)
Protocol: as §2

[11] = biological target: 5-HT6 (Homo sapiens, UniProt P50406); assay: CNS receptor binding, 5-HT6; details: HEK293 cell line, [3H]-LSD(1)
Protocol: as §2

[12] = biological target: β1 (Homo sapiens, UniProt P08588); assay: CNS receptor binding, NE receptor β1; details: HEK293 cell line, [3H]-DHA(1)
Protocol: as §2

[13] = biological target: H3 (Homo sapiens, UniProt Q9Y5N1); assay: CNS receptor binding, histamine H3; details: CHO cell line, [3H]-hestamine(1)
Protocol: as §2

[14] = biological target: T3, hSERT (Homo sapiens, UniProt P31645); type: binding
T3 construct: expressed in transfected cells
Protocol: Membranes were prepared from HEK293 cells stably expressing hSERT, hNET, or hDAT as described previously. Briefly, [^3H]-citalopram (1 nM), [^3H]-nisoxetine (2 nM), or [^3H]-WIN35,428 (2 nM) was used to label human 5-HT, NE, or DA transporters, respectively.
as §1

[15] = biological target: 5-HT1A (Homo sapiens, UniProt P08908); assay: CNS receptor binding, 5-HT1A; details: HEK293 cell line, [3H]-8-OH-DPAT(2)
Protocol: as §2

[16] = biological target: α2A (Rattus norvegicus, UniProt P22909); assay: CNS receptor binding, NE receptor α2A; details: Rat Cortex, [3H]-clonidine(2)
Protocol: as §2

[17] = biological target: T4, D1 (Homo sapiens, UniProt P21728); assay: CNS receptor binding, dopamine D1; details: HEK293 cell line, [3H]-SCH23390(1)
T4 construct: expressed in transfected cells; host or cells: HEK293 cell line
Protocol: as §2

[18] = read-out: IC50 values for albiflorin

Sequence of 5-HT1B (P28222 whole entry): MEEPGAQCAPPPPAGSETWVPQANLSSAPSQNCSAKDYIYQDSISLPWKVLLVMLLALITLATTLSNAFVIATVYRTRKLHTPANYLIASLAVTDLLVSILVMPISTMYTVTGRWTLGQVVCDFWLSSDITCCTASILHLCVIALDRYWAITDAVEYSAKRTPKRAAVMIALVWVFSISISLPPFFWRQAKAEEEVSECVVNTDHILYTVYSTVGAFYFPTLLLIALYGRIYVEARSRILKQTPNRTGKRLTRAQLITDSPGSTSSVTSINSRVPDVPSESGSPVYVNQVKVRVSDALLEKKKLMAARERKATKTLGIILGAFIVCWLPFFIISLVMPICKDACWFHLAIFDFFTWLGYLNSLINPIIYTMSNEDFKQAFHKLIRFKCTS
Sequence of α2A (P22909 whole entry): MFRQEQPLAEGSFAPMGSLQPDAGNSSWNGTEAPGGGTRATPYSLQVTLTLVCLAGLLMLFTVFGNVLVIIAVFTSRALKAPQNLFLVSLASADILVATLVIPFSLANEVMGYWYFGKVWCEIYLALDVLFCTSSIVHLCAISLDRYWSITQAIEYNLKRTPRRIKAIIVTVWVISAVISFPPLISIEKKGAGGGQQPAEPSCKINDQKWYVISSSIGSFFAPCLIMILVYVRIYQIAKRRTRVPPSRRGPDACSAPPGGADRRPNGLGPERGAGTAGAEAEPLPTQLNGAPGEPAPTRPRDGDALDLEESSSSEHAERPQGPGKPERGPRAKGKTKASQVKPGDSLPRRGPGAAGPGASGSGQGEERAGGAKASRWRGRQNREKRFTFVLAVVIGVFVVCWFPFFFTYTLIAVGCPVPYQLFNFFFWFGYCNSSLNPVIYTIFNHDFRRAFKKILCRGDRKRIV
Sequence of M2 (P08172 whole entry): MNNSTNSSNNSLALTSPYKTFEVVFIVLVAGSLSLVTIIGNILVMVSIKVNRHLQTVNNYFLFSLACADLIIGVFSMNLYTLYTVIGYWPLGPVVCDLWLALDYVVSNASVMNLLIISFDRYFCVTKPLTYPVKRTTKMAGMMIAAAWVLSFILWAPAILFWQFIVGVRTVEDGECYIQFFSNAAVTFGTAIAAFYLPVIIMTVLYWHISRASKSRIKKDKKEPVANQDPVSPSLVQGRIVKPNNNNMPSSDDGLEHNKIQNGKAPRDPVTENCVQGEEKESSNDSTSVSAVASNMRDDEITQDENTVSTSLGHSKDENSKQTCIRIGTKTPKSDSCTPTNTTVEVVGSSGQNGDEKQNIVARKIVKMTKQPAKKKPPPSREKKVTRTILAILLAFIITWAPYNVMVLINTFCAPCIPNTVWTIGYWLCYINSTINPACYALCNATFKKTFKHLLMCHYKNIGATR
Sequence of 5-HT1A (P08908 whole entry): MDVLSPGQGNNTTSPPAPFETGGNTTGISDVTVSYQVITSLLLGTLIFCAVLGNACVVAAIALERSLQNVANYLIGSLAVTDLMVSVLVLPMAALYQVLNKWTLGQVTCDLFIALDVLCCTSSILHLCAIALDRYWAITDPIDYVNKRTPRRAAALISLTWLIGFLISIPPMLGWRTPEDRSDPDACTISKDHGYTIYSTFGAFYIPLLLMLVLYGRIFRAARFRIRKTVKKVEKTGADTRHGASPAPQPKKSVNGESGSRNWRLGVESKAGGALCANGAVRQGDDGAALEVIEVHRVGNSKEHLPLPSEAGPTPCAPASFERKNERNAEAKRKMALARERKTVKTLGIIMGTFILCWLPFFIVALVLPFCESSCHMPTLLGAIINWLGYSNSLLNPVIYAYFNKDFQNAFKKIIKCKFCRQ
Sequence of 5-HT2a (P28223 whole entry): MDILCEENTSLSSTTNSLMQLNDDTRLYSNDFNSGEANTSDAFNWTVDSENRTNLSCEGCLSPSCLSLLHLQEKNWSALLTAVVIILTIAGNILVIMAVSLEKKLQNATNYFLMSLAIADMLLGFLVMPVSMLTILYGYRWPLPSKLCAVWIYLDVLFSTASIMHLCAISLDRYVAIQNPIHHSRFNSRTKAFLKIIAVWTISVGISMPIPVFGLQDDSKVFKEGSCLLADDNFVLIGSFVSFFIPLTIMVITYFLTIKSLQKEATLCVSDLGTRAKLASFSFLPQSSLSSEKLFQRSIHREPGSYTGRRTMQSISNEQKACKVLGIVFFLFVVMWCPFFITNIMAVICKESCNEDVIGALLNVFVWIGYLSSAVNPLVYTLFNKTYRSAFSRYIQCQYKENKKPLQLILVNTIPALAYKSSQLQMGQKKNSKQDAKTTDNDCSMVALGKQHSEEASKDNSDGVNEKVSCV
Sequence of κ (P41145 whole entry): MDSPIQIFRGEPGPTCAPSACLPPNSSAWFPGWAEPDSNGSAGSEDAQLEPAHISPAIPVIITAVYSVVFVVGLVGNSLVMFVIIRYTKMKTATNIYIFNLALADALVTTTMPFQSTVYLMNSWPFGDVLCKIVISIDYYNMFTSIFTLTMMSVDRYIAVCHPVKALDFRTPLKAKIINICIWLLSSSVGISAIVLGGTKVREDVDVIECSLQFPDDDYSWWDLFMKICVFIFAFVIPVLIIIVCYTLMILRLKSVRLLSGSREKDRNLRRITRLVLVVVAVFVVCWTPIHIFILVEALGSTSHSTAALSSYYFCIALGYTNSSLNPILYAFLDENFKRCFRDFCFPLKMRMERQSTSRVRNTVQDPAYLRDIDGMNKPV
Sequence of 5-HT6 (P50406 whole entry): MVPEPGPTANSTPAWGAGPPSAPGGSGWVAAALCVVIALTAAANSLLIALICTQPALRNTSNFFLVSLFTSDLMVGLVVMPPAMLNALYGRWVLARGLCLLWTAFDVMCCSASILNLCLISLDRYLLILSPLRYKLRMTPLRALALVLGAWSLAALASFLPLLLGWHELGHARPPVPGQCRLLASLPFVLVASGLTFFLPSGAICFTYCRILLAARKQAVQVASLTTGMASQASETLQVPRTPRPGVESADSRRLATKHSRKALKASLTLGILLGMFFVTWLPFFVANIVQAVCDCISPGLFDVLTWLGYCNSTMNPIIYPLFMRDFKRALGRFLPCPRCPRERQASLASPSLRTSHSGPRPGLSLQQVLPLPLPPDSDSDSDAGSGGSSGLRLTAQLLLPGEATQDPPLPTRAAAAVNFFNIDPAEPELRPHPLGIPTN
T4 sequence (P21728 whole entry): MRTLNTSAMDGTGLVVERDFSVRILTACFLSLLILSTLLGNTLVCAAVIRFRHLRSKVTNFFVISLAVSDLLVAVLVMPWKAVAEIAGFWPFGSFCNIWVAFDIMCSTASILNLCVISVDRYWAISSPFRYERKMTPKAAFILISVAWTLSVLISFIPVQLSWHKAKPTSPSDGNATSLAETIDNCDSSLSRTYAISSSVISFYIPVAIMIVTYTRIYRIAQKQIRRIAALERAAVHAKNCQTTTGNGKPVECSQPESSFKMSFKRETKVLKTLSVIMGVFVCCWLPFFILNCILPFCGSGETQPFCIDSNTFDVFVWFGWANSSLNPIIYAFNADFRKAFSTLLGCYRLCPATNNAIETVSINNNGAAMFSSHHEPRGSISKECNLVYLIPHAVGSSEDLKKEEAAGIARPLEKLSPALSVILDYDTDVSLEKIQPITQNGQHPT
T2 sequence (P21917 whole entry): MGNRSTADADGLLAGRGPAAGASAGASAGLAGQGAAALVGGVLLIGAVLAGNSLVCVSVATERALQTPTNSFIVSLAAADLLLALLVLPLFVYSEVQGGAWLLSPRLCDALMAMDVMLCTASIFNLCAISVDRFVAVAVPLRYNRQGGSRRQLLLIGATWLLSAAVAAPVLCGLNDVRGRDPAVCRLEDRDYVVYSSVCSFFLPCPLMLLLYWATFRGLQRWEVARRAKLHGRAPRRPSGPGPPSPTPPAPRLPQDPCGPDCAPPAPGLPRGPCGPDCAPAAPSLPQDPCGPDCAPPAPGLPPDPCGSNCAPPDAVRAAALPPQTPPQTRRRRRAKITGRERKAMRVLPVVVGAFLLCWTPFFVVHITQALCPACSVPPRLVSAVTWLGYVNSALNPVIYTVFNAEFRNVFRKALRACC
Sequence of H3 (Q9Y5N1 whole entry): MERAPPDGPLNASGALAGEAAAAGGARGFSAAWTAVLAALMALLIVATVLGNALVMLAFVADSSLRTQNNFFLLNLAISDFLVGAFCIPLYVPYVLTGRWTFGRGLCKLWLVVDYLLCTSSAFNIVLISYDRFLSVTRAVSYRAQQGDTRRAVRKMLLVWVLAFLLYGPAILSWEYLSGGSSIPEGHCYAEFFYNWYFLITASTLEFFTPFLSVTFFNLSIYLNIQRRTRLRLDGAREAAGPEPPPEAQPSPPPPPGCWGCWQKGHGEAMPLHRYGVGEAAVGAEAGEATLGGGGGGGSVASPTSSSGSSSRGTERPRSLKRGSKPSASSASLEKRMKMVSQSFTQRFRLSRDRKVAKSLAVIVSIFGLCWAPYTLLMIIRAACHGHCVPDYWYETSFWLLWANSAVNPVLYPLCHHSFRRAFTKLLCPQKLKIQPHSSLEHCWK
Sequence of β1 (P08588 whole entry): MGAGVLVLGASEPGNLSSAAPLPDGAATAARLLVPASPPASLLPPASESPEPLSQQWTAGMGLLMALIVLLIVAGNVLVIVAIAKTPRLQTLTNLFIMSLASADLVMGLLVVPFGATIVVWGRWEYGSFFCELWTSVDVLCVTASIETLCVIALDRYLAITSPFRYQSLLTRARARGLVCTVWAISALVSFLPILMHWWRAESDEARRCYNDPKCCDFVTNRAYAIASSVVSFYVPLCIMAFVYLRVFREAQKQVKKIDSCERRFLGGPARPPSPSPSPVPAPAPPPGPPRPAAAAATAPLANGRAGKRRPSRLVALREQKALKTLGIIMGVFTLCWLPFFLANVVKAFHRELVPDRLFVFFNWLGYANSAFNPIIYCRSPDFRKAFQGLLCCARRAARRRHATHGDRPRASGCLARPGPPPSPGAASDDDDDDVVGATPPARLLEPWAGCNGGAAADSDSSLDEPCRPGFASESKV

## C[C@]12C[C@@H](O)[C@@H]3C[C@@]1(O[C@@H]1O[C@H](CO)[C@@H](O)[C@H](O)[C@H]1O)[C@@]3(COC(=O)c1ccccc1)C(=O)O2 [albiflorin, Albiflorin]
[1]
  IC50: 0.00036 ± 8e-05 µM
[2]
  % Inhibition of binding at 10 μM albiflorin: 32.33%
[2]; [18]
  IC50: > 10 µM
[3]
  % Inhibition of binding at 10 μM albiflorin: 13.33%
[3]; [18]
  IC50: > 10 µM
[4]
  % Inhibition of binding at 10 μM albiflorin: 55.36%
[4]; [18]
  IC50: 4 ± 0.113 µM
[5]
  antidepressant-like effect, sucrose consumption: reversal of chronic unpredicted mild stress-induced inhibition of sucrose consumption
[6]
  % Inhibition of binding at 10 μM albiflorin: 19.50%
[6]; [18]
  IC50: > 10 µM
[7]
  % Inhibition of binding at 10 μM albiflorin: 16.60%
[7]; [18]
  IC50: > 10 µM
[8]
  IC50: > 10 µM
[9]
  % Inhibition of binding at 10 μM albiflorin: 12.33%
[9]; [18]
  IC50: > 10 µM
[10]
  % Inhibition of binding at 10 μM albiflorin: 21.23%
[10]; [18]
  IC50: > 10 µM
[11]
  % Inhibition of binding at 10 μM albiflorin: 22.36%
[11]; [18]
  IC50: > 10 µM
[12]
  % Inhibition of binding at 10 μM albiflorin: 63.22%
[12]; [18]
  IC50: 3.35 ± 0.212 µM
[13]
  % Inhibition of binding at 10 μM albiflorin: 12.33%
[13]; [18]
  IC50: > 10 µM
[14]; Human, [3H]-citalopram, HEK293 cell line, read-out: Ki values, SERT binding
  Ki: 0.00645 ± 0.00048 µM
[14]; albiflorin vs fluoxetine
  affinity relative to fluoxetine in human SERT binding assay: 17 fold
[15]
  % Inhibition of binding at 10 μM albiflorin: 69.60%
[15]; [18]
  IC50: 4 ± 0.662 µM
[16]
  % Inhibition of binding at 10 μM albiflorin: 36.66%
[16]; [18]
  IC50: > 10 µM
[17]
  % Inhibition of binding at 10 μM albiflorin: 54.20%
[17]; [18]
  IC50: 2.99 ± 0.166 µM

Reference: paper PMC5028780, “Receptor and transporter binding and activity profiles of albiflorin extracted from Radix paeoniae Alba” (Scientific Reports, 2016)
